What was measured:
[1] = Sensory panel: taste of combination with acesulfame-K; assay type: in vivo, human; conditions: 25 μM with 150 ppm acesulfame-K, pH neutral
Procedure: The sensory evaluation of the samples was performed by a team of five experienced assessors. The results may be taken from the following Table 4: [table]

[2] = Sensory panel: taste modulation of green tea; assay type: in vivo, human; conditions: vs 0.5% ethanol in tea
Procedure: The sensory evaluation of the samples was performed by a team of five experienced assessors. Details may be taken from the following Table 6: [table]

[3] = Sensory panel: taste modulation of a potassium chloride solution; assay type: in vivo, human; conditions: 50 μM, pH neutral, 1,500 mg KCl in 100 ml water
Procedure: The sensory evaluation of the samples was performed by a team of five experienced assessors. Details may be taken from the following Table 9: [table]

[4] = Sensory panel: taste of combination with saccharin; assay type: in vivo, human; conditions: 10 μM with 80 ppm saccharin, pH neutral
Procedure: The sensory evaluation of the samples was performed by a team of five experienced assessors. The results may be taken from the following Table 3: [table]

[5] = Sensory panel: taste modulation of grapefruit juice; assay type: in vivo, human
Procedure: The sensory evaluation of the samples was performed by a team of five experienced assessors. Details may be taken from the following Table 7: [table]

[6] = test system: human bitter receptor cells; assay: In-vitro assay: intracellular calcium mobilisation (Fluo-4 AM) in human bitter receptor cell line stimulated with saccharin; assay type: cell-based; conditions: human taste cells stimulated with 1 mM saccharin, fluorometric detection, 0.1-25 μM substance; read-out: IC50 (average inhibitory concentration of the antagonist)
Procedure: Human bitter receptor cells were established, and the activation of these cells was quantified in order to detect, by means of a cell-based test system, natural substances which reduce the bitterness of bitter principles. The change of the intracellular […] level was measured for quantitation of the activation of bitter receptor cells. In order to detect substances with inhibitory activity, a high-throughput cell-based in-vitro measurement system was established. […] The modulation of the intracellular […] level of the bitter receptor cells was quantitated by means of the […] fluorescence dye Fluo-4 AM in a microplate reader. […] The quantity of mobilised calcium may be quantitated by means of fluorescence, which increases in proportion with the concentration of calcium. […] 24 hours after seeding, the cells were dyed with 4 μM of the calcium-sensitive fluorescence dye Fluo-4 AM in HBSS (Hank's Balanced Salt Solution) buffer, and the mobilisation of calcium in living cells was measured in the microplate reader (FlexStation® […], Molecular Devices). […] The mobilisation of calcium was measured in the microplate reader at 37° C. The mobilisation of calcium was quantitated as the change of fluorescence (dF) after the addition of the substance, taking into account the basal fluorescence (F0) as dF/F0. […]

[7] = cited from earlier work

| IC50 [6] [nM] | SMILES | Evaluation (taste with acesulfame-K) [1] | Evaluation (taste of green tea) ([2]; 25 μM in Green tea) | Evaluation (taste of green tea) ([2]; 50 μM in Green tea) | Evaluation (taste of potassium chloride solution) [3] | Evaluation (taste with saccharin) [4] | Bitter taste of freshly squeezed grapefruit juice [5] | Daily uptake considered harmless [7] |
| --- | --- | --- | --- | --- | --- | --- | --- | --- |
| 1700 | CC(C)c1ccc2c(c1)CC[C@H]1[C@](C)(C(=O)O)CCC[C@]21C [dehydroabietic acid] | No bitter taste present any more | Slightly bitter taste that quickly fades | As in 25 μM, but less astringent | Less bitter than the comparison sample | Slightly bitter aftertaste | significant reduction of the bitter taste without negatively influencing the fruit aroma and the refreshing tartness | – |
| – | C=C1C[C@@]23CC[C@H]4[C@@](C)(CCC[C@@]4(C)C(=O)O[C@@H]4O[C@H](CO)[C@@H](O)[C@H](O)[C@H]4O)[C@@H]2CC[C@]1(O[C@@H]1O[C@H](CO)[C@@H](O)[C@H](O)[C@H]1O[C@@H]1O[C@H](CO)[C@@H](O)[C@H](O)[C@H]1O)C3 [stevioside] | – | – | – | – | – | – | up to 4 mg per kilogramme of bodyweigh |
